The values below come from BindingDB's records for doi:10.1016/j.chembiol.2016.06.017 (Universitätsklinikum Frankfurt, 2016).

As a reminder, the Kd is the concentration at which binding is half-saturated. The low end stands for tighter binding, the high end for weaker binding.

The experiment has as its target T1, 3-phosphoinositide-dependent protein kinase 1 [50-359] (Homo sapiens, UniProt O15530).
T1 construct: 50-359
T1 sequence (O15530 whole entry): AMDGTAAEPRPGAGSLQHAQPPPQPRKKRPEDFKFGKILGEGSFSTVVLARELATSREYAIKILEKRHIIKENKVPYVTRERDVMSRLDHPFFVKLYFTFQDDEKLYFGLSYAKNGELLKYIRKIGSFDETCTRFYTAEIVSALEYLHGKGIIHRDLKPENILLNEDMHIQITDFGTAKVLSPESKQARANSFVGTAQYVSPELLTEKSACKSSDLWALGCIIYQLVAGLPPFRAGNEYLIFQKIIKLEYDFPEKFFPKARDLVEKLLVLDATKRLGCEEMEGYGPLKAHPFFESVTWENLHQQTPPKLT
Kind of experiment: Isothermal titration calorimetry. The note with it: pH 7.4. As for the experimental part:
For the titrations of PDK1 with adenosine, the protein and the compound were prepared in 50 mMTris-HCl (pH 7.4), 200 mM NaCl, 1 mM DTT and 1% v/v DMSO. For the titration of PDK1 with PS653 theprotein and the compound were prepared in 50 mM Tris-HCl (pH 7.4), 200 mM NaCl, 1 mM DTT and 5% v/vDMSO. […] The titrationof PDK1 with adenosine was performed at 25 C, and the titration of PDK1 with PS653 was made at 37 C. Rawcalorimetric data were corrected for heats of dilution. Binding stoichiometries, enthalpy values and Kd valueswere determined by fitting corrected data to
In general terms: Isothermal titration calorimetry measures the heat released or taken up as one component is titrated into another.

Molecule `O=C1c2ccccc2-c2n[nH]c3cccc1c23` [SP-600125] had a dissociation constant (Kd) of 1.25 µM.
